Experimental data as given in patent US20080287915A1, “Tissue engineering system with scleral lens” (Boston Foundation for Sight, priority 2007, published 2008).
Like-named read-outs stand apart in the source and are kept apart here.

Key:
[1] = tested on: corneal neovascularization; details: solution of 1% AVASTIN and 0.01% BAK, one drop, four times per day for at least thirty days, topical; cited from earlier work
[2] = tested on: corneal neovascularization; test: AVASTIN in the scleral lens drug delivery system to treat corneal neovascularization; type: in vivo
From the text: This study using AVASTIN® off-label, topically, to treat corneal neovascularization was repeated using the scleral lens drug delivery system. […] This therapeutic effect was achieved without BAK. Instead, the expanded pre-corneal tear film of the scleral lens drug delivery system provided adequate bioavailability of the drug without exposing the cornea to BAK.

bevacizumab [AVASTIN®]
therapeutic effect on corneal neovascularization [1]: Therapeutic effect was reported | therapeutic effect on corneal neovascularization ([2]; one drop of 1% AVASTIN added to expanded pre-corneal tear film of artificial tears in a scleral lens twice per day, without BAK): achieved a therapeutic effect by thirty days with continued benefit over the subsequent sixty days | regression of corneal neovascularization (clinical photos, FIG. 5) ([2]; scleral lens drug delivery system): regression of corneal neovascularization
